Experimental findings from patent US20250034522A1, “METHOD FOR SEPARATING PITUITARY CELLS AND HYPOTHALAMIC CELLS USING CELL SURFACE MARKER” (FUJITA ACADEMY, priority 2021, published 2025) are described below.

Where no end group is shown, it is not given here.

Format in all cases: cell-based, human
In assay [1] the test system is CD49c-positive cell aggregates reaggregated after FACS purification from hESC sample. Briefly: ACTH secretion test with secretion suppressor cortisol. The settings on record: CD49c-positive cells (FACS, hESC sample), cultured 13 days, 3 hours pretreatment, Hydrocortisone 20 µg/ml vs 0.1% DMSO, standard glucose medium 30 minutes, ECLIA. As for the experimental part: As a test method, a cell aggregate that was reaggregated after FACS purification from a hESC sample and cultured for 12 days was used. Each cell aggregate was transferred to a 1.5 ml microtube, incubated in 250 μl of standard glucose medium (glucose-free DMEM+5.56 mM D-glucose+4.44 mM D-mannitol) at 37° C. for 30 minutes, and then the medium was collected. Subsequently, the aggregate was incubated in 250 μl of standard glucose medium containing 1 μg/ml CRH (Peptide Institute, #4136-s) at 37° C. for 30 minutes, and then the medium was collected. The ACTH concentration in the collected medium was measured by the ECLIA method used in clinical testing. […] As a test method, a cell aggregate that was reaggregated after FACS purification from a hESC sample and cultured for 13 days was used. Before secretion measurement, cells were pretreated for 3 hours with maintenance medium (gfCDM+20% KSR+2 μM SAG) containing cortisol (Hydrocortisone, […]) or the same amount of solvent (0.1% DMSO) as a control. […] The ACTH concentration in the collected medium was measured by the ECLIA method used in clinical testing. […] ACTH concentration in the collected medium etc., was measured by the ECLIA method used in clinical testing. […]

For assay [2], the system named is cell aggregates reaggregated after FACS purification from hiPSC sample (CD49c-positive / CD49c-negative cells). Nature of the assay: ACTH secretion test (CRH stimulation) on hiPSC sample reaggregates. As to conditions: cultured 21 days, 1 μg/ml CRH in standard glucose medium, 37° C., 30 minutes, ECLIA. As for the experimental part:
As a test method, a cell aggregate that was reaggregated after FACS purification from a hiPSC sample and cultured for 21 days was used. Each cell aggregate was transferred to a 1.5 ml microtube, incubated in 250 μl of standard glucose medium (glucose-free DMEM+5.56 mM D-glucose+4.44 mM D-mannitol) at 37° C. for 30 minutes, and then the medium was collected. Subsequently, the aggregate was incubated in 250 μl of standard glucose medium containing 1 μg/ml CRH (Peptide Institute, #4136-s) at 37° C. for 30 minutes, and then the medium was collected. The ACTH concentration in the collected medium was measured by the ECLIA method used in clinical testing.
(§1) Cell aggregates that were reaggregated after MACS or FACS purification and cultured for 8 days or more were used. One or five cell aggregates were incubated at a predetermined temperature and for a predetermined time using a predetermined medium, etc., and then the medium and the like were collected. ACTH concentration in the collected medium etc., was measured by the ECLIA method used in clinical testing. In addition, when confirming the influence of secretion suppressing factors and CRH receptor inhibitors, pretreatment was performed for a predetermined period of time with a maintenance medium containing secretion suppressing factors and CRH receptor inhibitors before secretion measurement.

For assay [3], the system named is cell aggregates reaggregated after MACS purification from hESC sample (CD49c-positive / CD49c-negative cells). Nature of the assay: ACTH secretion test (CRH stimulation) on reaggregates after MACS purification. The settings on record: 8 days after reaggregation, 5 aggregates, 1 μg/ml CRH in HBSS, 37° C., 10 minutes, ECLIA. As for the experimental part: The test method used cell aggregates that were cultured for 8 days after MACS purification from a sample differentiated from hESC (also referred to as “hESC sample”) and reaggregation. 5 cell aggregates were transferred to a 1.5 ml microtube and incubated in 250 μl of HBSS(+) (Wako, #084-08965) at 37° C. for 10 minutes, and then HBSS was collected. Subsequently, HBSS was collected after incubation at 37° C. for 10 minutes in 250 μl of HBSS containing 1 μg/ml CRH (Peptide Institute, #4136-s). The ACTH concentration in the collected HBSS was measured by the ECLIA method used in clinical testing.
as §1

Assay [4] has as its system CD49c-positive cell aggregates reaggregated after FACS purification from hESC sample. Briefly: ACTH secretion test (CRH stimulation) on reaggregates after FACS purification. As to conditions: CD49c-positive cells (FACS, hESC sample), cultured 12 days, 1 μg/ml CRH in standard glucose medium, 37° C., 30 minutes, ECLIA. As for the experimental part: As a test method, a cell aggregate that was reaggregated after FACS purification from a hESC sample and cultured for 12 days was used. Each cell aggregate was transferred to a 1.5 ml microtube, incubated in 250 μl of standard glucose medium (glucose-free DMEM+5.56 mM D-glucose+4.44 mM D-mannitol) at 37° C. for 30 minutes, and then the medium was collected. Subsequently, the aggregate was incubated in 250 μl of standard glucose medium containing 1 μg/ml CRH (Peptide Institute, #4136-s) at 37° C. for 30 minutes, and then the medium was collected. The ACTH concentration in the collected medium was measured by the ECLIA method used in clinical testing. […] As a test method, a cell aggregate that was reaggregated after FACS purification from a hESC sample and cultured for 13 days was used. Before secretion measurement, cells were pretreated for 3 hours with maintenance medium (gfCDM+20% KSR+2 μM SAG) containing cortisol (Hydrocortisone, […]) or the same amount of solvent (0.1% DMSO) as a control. […] The ACTH concentration in the collected medium was measured by the ECLIA method used in clinical testing.
(§2) Cell aggregates that were reaggregated after MACS or FACS purification and cultured for 8 days or more were used. […] ACTH concentration in the collected medium etc., was measured by the ECLIA method used in clinical testing. […]

The test system is the same in assay [5]. Nature of the assay: ACTH secretion test with CRH receptor inhibitor under standard and low glucose. As to conditions: 3 hours pretreatment, vs 0.1% DMSO, 30 minutes, aggregates cultured 13-15 days. As for the experimental part: As a test method, a cell aggregate that was reaggregated after FACS purification from a hESC sample and cultured for 13-15 days was used. Before secretion measurement, cells were pretreated for 3 hours with maintenance medium (gfCDM+20% KSR+[…]) containing antalarmin […] or the same amount of solvent (0.1% DMSO) as a control. Each pretreated cell aggregate was transferred to a 1.5 ml microtube, incubated in 250 μl of standard glucose medium (glucose-free DMEM+5.56 mM D-glucose+4.44 mM D-mannitol) at 37° C. for 30 minutes, and the medium was collected. Subsequently, the aggregate was incubated in 250 μl of low glucose medium (glucose-free DMEM+0.56 mM D-glucose+9.44 mM D-mannitol) at 37° C. for 30 minutes, and then the medium was collected. Antalarmin or DMSO was continuously added to the standard glucose medium and low glucose medium described above. The results of measuring the ACTH concentration in the collected medium using the ECLIA method used in clinical tests are shown. It was confirmed that ACTH secretion increased under low glucose conditions (10 mg/dL) compared to standard glucose conditions (100 mg/dL). […]
as §2

With `C[C@]12CCC(=O)C=C1CC[C@@H]1[C@@H]2[C@@H](O)C[C@@]2(C)[C@H]1CC[C@]2(O)C(=O)CO` [cortisol, Hydrocortisone], the “ACTH secreted per cell aggregate before and after cortisol treatment” value in assay [1] was “ACTH secretion was reduced”.

With “CRH: CRH (Peptide Institute, #4136-s), a physiological secretion stimulating factor (SEEPPISLDLTFHLLREVLEMARAEQLAQQAHSNRKLMEII; ends and bridges not checked; UniProt P06850 154-194, looked up)”, the “ACTH secretion per cell aggregate before and after CRH stimulation” value in assay [2] (CD49c-negative cells (FACS, hiPSC sample)) is listed as “did not respond to CRH”; in assay [2] (CD49c-positive cells (FACS, hiPSC sample)) it was “increased ACTH secretion”; in assay [4] it was “ACTH secretion increases”. For the same compound, the “ACTH secretion before and after CRH stimulation” value in assay [3] (CD49c-negative cells (MACS, hESC sample)) was “did not respond to CRH”; in assay [3] (CD49c-positive cells (MACS, hESC sample)) it was “increased ACTH secretion”.

Take `CCCCN(CC)c1nc(C)nc2c1c(C)c(C)n2-c1c(C)cc(C)cc1C` [Antalarmin]: the “ACTH secretion with Antalarmin treatment” value in assay [5] (low glucose conditions (10 mg/dL)) and in assay [5] (standard glucose conditions (100 mg/dL)) was “reduced ACTH secretion” each time.
